Measured values taken from patent US9586903B2, “Isoquinoline derivatives” (Hoffmann-La Roche Inc., priority 2013, dated 2017).

Tested on: human embryonic stem cell derived neural stem cells (NSCs)
Test: Neural stem cell proliferation assay (neurogenesis assay, ATP/CellTiterGlo readout)
Type: cell-based
Details: 4 days incubation
Method: Neural Stem Cell Proliferation Assay
Neurogenic properties of small molecules are determined based on the proliferation of human embryonic stem cell derived neural stem cells (NSCs) which were derived via a dual smad inhibition as previously described (Chambers, S. M., et al., Highly efficient neural conversion of human ES and iPS cells by dual inhibition of SMAD signaling, Nature biotechnology, 2009. 27(3): p. 275-80.)
Compounds respond is measured by the increase in cells based on ATP levels (Promega:CellTiterGlo®) after an incubation period of 4 days.
NSCs are thawed and expanded over 3 passages. On the 14th day, NSCs are seeded in Polyornithin/Laminin coated 384 well plates at a cell density of 21′000 cells/cm^2 in a media volume of 38 μl.
4 hours after cell seeding, compound solutions are added at a volume of 2 μl. Stock solutions of the compounds (water, 5% DMSO) are diluted to obtain a dose response (11 points, dilution factor is 2), ranging from 8 μM to 8 nM. Controls are run to consistently determine the neurogenic properties of the cells:
Negative (neutral) control is cell culture Media (final DMSO concentration: 0.25%).
1. cell culture Media+100 ng/ml FGF2 (final DMSO concentration: 0.1%)
2. cell culture Media+20 ng/ml EGF (final DMSO concentration: 0.1%)
3. cell culture Media+100 ng/ml Wnt3a (final DMSO concentration: 0.1%)
After 4 days incubation at 37° C., 5% CO2, the amount of ATP per well is quantified. The ATP concentration is proportional to the cell number. ATP is quantified by using the Promega CellTiterGlo® kit. The CellTiterGlo® reagents contain a cell lysis buffer, a thermo stable luciferase (UltraGlo™ recombinant luciferase), magnesium and luciferin. Luciferin reacts with ATP producing oxyluciferin, AMP and light. The luminescence signal is proportional to the ATP content.
The value of negative (neutral) control is determined for each assay plate by taking the average of 16 negative control wells. The neurogenic compound response is calculated for each compound as (compound/Negative Control)*100.
The values of EC150 from the dose response curve are determined for each test compound. The EC150 is the compound concentration at which 150% activity of control (100%) is reached.

[1] = Homo sapiens, Neural stem cell, 96 h, Table 1, novel compounds, concentration at which 150% activity of control (100%) is reached

| Structure (SMILES) | EC (150% of control) [1] [µM] | EC (150% of control) (Table 2, known compounds) [µM] |
| --- | --- | --- |
| O=C(c1ccc2cncc(-c3ccc(Cl)cc3)c2c1)N1CCC(O)C1 (stereo not shown) [Example 22, (4-(4-Chlorophenyl)isoquinolin-6-yl)(3-hydroxypyrrolidin-1-yl)methanone] | 0.28 |  |
| CC1(CNC(=O)c2ccc3cncc(-c4ccc(Cl)cc4)c3c2)CCC(=O)N1 (stereo not shown) [Example 20, 4-(4-Chlorophenyl)-N-((2-methyl-5-oxopyrrolidin-2-yl)methyl)isoquinoline-6-carboxamide] | 0.18 |  |
| COc1ccccc1CNC(=O)c1ccc2cncc(-c3ccc(Cl)cc3)c2c1 [Example 10, 4-(4-Chlorophenyl)-N-(2-methoxybenzyl)isoquinoline-6-carboxamide] | 0.09 |  |
| CS(=O)(=O)NNC(=O)c1ccc2cncc(-c3ccc(Cl)cc3)c2c1 [Example 25, N′-(4-(4-Chlorophenyl)isoquinoline-6-carbonyl)methanesulfonohydrazide] | 0.02 |  |
| CN(CC1CC1)C(=O)c1ccc2cncc(-c3ccc(Cl)cc3)c2c1 [Example 21, 4-(4-Chlorophenyl)-N-(cyclopropylmethyl)-N-methylisoquinoline-6-carboxamide] | 0.21 |  |
| O=C(NCC1CC1)c1ccc2cncc(-c3ccc(Cl)cc3)c2c1 [Example 6, 4-(4-Chlorophenyl)-N-(cyclopropylmethyl)isoquinoline-6-carboxamide] | 0.19 |  |
| O=C(NC1CCOC1)c1ccc2cncc(-c3ccc(Cl)cc3)c2c1 (stereo not shown) [Example 16, 4-(4-Chlorophenyl)-N-(tetrahydrofuran-3-yl)isoquinoline-6-carboxamide] | 0.76 |  |
| Cn1cc(NC(=O)c2ccc3cncc(-c4ccc(Cl)cc4)c3c2)cn1 [Example 26, 4-(4-Chlorophenyl)-N-(1-methyl-1H-pyrazol-4-yl)isoquinoline-6-carboxamide] | 0.32 |  |
| CC(C)(C)NC(=O)c1ccc2cncc(-c3ccc(Cl)cc3)c2c1 [Example 23, N-tert-Butyl-4-(4-chlorophenyl)isoquinoline-6-carboxamide] | 0.73 |  |
| O=C(NCCC(F)(F)F)c1ccc2cncc(-c3ccc(Cl)cc3)c2c1 [Example 24, 4-(4-Chlorophenyl)-N-(3,3,3-trifluoropropyl)isoquinoline-6-carboxamide] | 0.06 |  |
| O=C(c1ccc2cncc(-c3ccc(Cl)cc3)c2c1)N1CCS(=O)(=O)CC1 [Example 3, [4-(4-Chloro-phenyl)-isoquinolin-6-yl]-(1,1-dioxo-thiomorpholin-4-yl)-methanone] | 0.16 |  |
| O=C(NCc1ccccc1)c1ccc2cncc(-c3ccc(Cl)cc3)c2c1 [Example 2, N-benzyl-4-(4-chlorophenyl)isoquinoline-6-carboxamide] | 0.09 |  |
| CC(C)(C)CNC(=O)c1ccc2cncc(-c3ccc(Cl)cc3)c2c1 [Example 4, 4-(4-Chloro-phenyl)-isoquinoline-6-carboxylic acid (2,2-dimethyl-propyl)-amide] | 0.19 |  |
| O=C(Nc1ccccc1)c1ccc2cncc(-c3ccc(Cl)cc3)c2c1 [Example 13, 4-(4-Chlorophenyl)-N-phenylisoquinoline-6-carboxamide] | 0.71 |  |
| NC(=O)c1ccc2cncc(-c3ccc(Cl)nc3)c2c1 [Example 32, 4-(6-Chloropyridin-3-yl)isoquinoline-6-carboxamide] | 0.02 |  |
| O=C(NCC(F)(F)F)c1ccc2cncc(-c3ccc(Cl)cc3)c2c1 [Example 14, 4-(4-Chlorophenyl)-N-(2,2,2-trifluoroethyl)isoquinoline-6-carboxamide] | 0.05 |  |
| NC(=O)c1ccc2cncc(-c3ccc(C(F)(F)F)cc3)c2c1 [Example 34, 4-(4-(Trifluoromethyl)phenyl)isoquinoline-6-carboxamide] |  | 0.02 |

| Structure (SMILES) | EC (150% of control) [1] [µM] | EC (150% of control) (Table 2, known compounds) [µM] |
| --- | --- | --- |
| CN1CCN(C(=O)c2ccc3cncc(-c4ccc(Cl)cc4)c3c2)CC1 [Example 19, (4-(4-Chlorophenyl)isoquinolin-6-yl)(4-methylpiperazin-1-yl)methanone] | 0.11 |  |
| CN(NC(=O)c1ccc2cncc(-c3ccc(Cl)cc3)c2c1)S(C)(=O)=O [Example 28, N′-(4-(4-Chlorophenyl)isoquinoline-6-carbonyl)-N-methylmethanesulfonohydrazide] | 0.39 |  |
| CC(NC(=O)c1ccc2cncc(-c3ccc(Cl)cc3)c2c1)c1cccc(S(C)(=O)=O)c1 (stereo not shown) [Example 27, 4-(4-Chlorophenyl)-N-(1-(3-(methylsulfonyl)phenyl)ethyl)isoquinoline-6-carboxamide] | 0.79 |  |
| CS(=O)(=O)c1ccc(CNC(=O)c2ccc3cncc(-c4ccc(Cl)cc4)c3c2)cc1 [Example 9, 4-(4-chlorophenyl)-N-(4-(methylsulfonyl)benzyl)isoquinoline-6-carboxamide] | 0.85 |  |
| NC(=O)c1ccc2cncc(-c3ccc(Cl)cc3)c2c1 [Example 33, 4-(4-Chlorophenyl)isoquinoline-6-carboxamide] |  | 0.01 |
| O=C(NCc1ccccc1)c1ccc2cncc(-c3ccncc3)c2c1 [Example 1, N-Benzyl-4-(pyridin-4-yl)isoquinoline-6-carboxamide] | 0.07 |  |
| O=C(c1ccc2cncc(-c3ccc(Cl)cc3)c2c1)N1CCOCC1 [Example 18, (4-(4-Chlorophenyl)isoquinolin-6-yl)(morpholino)methanone] | 0.38 |  |
| O=C(NCc1ccccn1)c1ccc2cncc(-c3ccc(Cl)cc3)c2c1 [Example 11, 4-(4-Chlorophenyl)-N-(pyridin-2-ylmethyl)isoquinoline-6-carboxamide] | 0.09 |  |
| CC(C)(CO)NC(=O)c1ccc2cncc(-c3ccc(Cl)cc3)c2c1 [Example 17, 4-(4-Chlorophenyl)-N-(1-hydroxy-2-methylpropan-2-yl)isoquinoline-6-carboxamide] | 2.5 |  |
| CS(=O)(=O)c1cccc(CNC(=O)c2ccc3cncc(-c4ccc(Cl)cc4)c3c2)c1 [Example 12, 4-(4-Chlorophenyl)-N-(3-(methylsulfonyl)benzyl)isoquinoline-6-carboxamide] | 0.1 |  |
| O=C(NCc1cccnc1)c1ccc2cncc(-c3ccc(Cl)cc3)c2c1 [Example 8, 4-(4-Chlorophenyl)-N-(pyridin-3-ylmethyl)isoquinoline-6-carboxamide] | 0.08 |  |
| N#Cc1ccc(-c2cncc3ccc(C(N)=O)cc23)cc1 [Example 30, 4-(4-Cyanophenyl)isoquinoline-6-carboxamide] | 0.03 |  |
| CS(=O)(=O)CCNC(=O)c1ccc2cncc(-c3ccc(Cl)cc3)c2c1 [Example 7, 4-(4-Chlorophenyl)-N-(2-(methylsulfonyl)ethyl)isoquinoline-6-carboxamide] | 0.07 |  |
| O=C(NC1CC1)c1ccc2cncc(-c3ccc(Cl)cc3)c2c1 [Example 5, 4-(4-Chlorophenyl)-N-cyclopropylisoquinoline-6-carboxamide] | 0.03 |  |
| CC(C)NC(=O)c1ccc2cncc(-c3ccc(Cl)cc3)c2c1 [Example 15, 4-(4-Chlorophenyl)-N-isopropylisoquinoline-6-carboxamide] | 0.98 |  |
| NC(=O)c1ccc2cncc(C3=CCOCC3)c2c1 [Example 29, 4-(3,6-Dihydro-2H-pyran-4-yl)isoquinoline-6-carboxamide] | 0.14 |  |
| NC(=O)c1ccc2cncc(-c3ccc(Cl)cc3Cl)c2c1 [Example 31, 4-(2,4-Dichlorophenyl)isoquinoline-6-carboxamide] | 0.06 |  |
